Test results published in ChEMBL document CHEMBL5120757, “Strategies Targeting Protein Tyrosine Phosphatase SHP2 for Cancer Therapy” (J Med Chem, 2022).

How the values were obtained:
[1] = target: T1, Tyrosine-protein phosphatase non-receptor type 11 (Homo sapiens, UniProt Q06124); assay: Inhibition of SHP2 (unknown origin)
T1 sequence (Q06124 whole entry): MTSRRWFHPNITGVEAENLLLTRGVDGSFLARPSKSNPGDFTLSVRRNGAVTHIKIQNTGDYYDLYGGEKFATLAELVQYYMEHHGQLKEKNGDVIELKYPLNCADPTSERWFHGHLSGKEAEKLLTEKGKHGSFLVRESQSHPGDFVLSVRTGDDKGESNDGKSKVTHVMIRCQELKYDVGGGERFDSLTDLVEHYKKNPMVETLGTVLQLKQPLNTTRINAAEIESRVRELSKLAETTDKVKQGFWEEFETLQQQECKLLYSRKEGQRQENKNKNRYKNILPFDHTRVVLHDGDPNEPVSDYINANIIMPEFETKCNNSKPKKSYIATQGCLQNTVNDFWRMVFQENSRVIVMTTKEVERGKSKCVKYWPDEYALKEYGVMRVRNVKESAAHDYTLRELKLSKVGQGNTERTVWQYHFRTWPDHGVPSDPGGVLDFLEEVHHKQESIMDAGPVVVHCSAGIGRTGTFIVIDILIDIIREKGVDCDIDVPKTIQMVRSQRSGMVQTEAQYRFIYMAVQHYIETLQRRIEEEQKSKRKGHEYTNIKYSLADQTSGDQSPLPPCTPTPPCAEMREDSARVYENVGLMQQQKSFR

[2] = target: T1, Tyrosine-protein phosphatase non-receptor type 11; assay: Degradation of wildtype SHP2 in human MV411 cells; format: cell-based; conditions: mv4-11
[3] = target: Tyrosine-protein phosphatase non-receptor type 11 (Homo sapiens, UniProt Q06124, F285S); assay: Inhibition of SHP2 F285S mutant (unknown origin) using DiFMUP as substrate incubated for 1 hr followed by substrate addition measured after 30 mins by plate reader method
Sequence of Tyrosine-protein phosphatase non-receptor type 11 (Homo sapiens, UniProt Q06124, F285S) (Q06124 2-593 F285S limits assumed): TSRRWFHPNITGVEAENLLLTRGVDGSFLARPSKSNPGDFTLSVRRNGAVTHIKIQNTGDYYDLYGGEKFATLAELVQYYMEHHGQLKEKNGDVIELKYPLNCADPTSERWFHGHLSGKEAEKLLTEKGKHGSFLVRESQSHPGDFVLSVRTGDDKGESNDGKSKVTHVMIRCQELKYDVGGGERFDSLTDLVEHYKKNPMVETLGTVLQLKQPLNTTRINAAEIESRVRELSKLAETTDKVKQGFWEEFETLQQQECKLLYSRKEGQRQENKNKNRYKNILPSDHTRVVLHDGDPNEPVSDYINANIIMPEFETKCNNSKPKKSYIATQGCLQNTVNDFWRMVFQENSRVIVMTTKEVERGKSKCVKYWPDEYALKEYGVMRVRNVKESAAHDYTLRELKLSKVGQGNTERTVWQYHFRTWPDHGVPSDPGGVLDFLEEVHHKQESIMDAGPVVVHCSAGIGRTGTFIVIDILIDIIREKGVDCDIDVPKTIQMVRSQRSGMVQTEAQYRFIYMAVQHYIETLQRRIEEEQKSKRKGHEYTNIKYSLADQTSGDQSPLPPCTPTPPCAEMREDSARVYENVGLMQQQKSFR

[4] = target: T1, Tyrosine-protein phosphatase non-receptor type 11; assay: Inhibition of wildtype SHP2 (unknown origin)

Structure (SMILES)	IC50 [1] [nM]	also measured
COC(=O)c1cc(NC2=NC(=O)/C(=C/c3ccc(C)cc3)S2)ccc1O	50	
C[C@@H]1OCC2(CCN(c3cnc(Sc4cccc(NC(=O)CCC(=O)NCCCOCCOCCOCCCNc5cccc6c5C(=O)N(C5CCC(=O)NC5=O)C6=O)c4Cl)c(N)n3)CC2)[C@@H]1N (some centres not stated)		DC50 [2]: 6 nM
Cc1nc(N2CCC3(CC2)CO[C@@H](C)[C@H]3N)cnc1-c1ccc(OCCOCCOCCCOCCCOCCCOCCCOCCOCCNCC(=O)COc2cccc3c2C(=O)N(C2CCC(=O)NC2=O)C3=O)c(Cl)c1Cl (some centres not stated)		IC50 [3]: 22.5 nM
C=C/C(=C/C(=O)C[C@H](C)C[C@@H](C)CC[C@H](O)[C@H](C)C(=O)C[C@@H](O)[C@H](C)[C@@H](C)OC(=O)C[C@@H](O)/C(C(=O)O)=C(\C)C(=O)O)CC	29000	
CC1(NCc2cn(CCOCCOCCOCCOCCNc3cccc4c3C(=O)N(C3CCC(=O)NC3=O)C4=O)nn2)CCN(c2cnc(-c3cccc(Cl)c3Cl)c(N)n2)CC1 (configuration not stated)		IC50 [4]: 714 nM
NC(=O)c1cc[n+](CC2=C(C(=O)O)N3C(=O)[C@@H](NC(=O)[C@@H](c4ccccc4)S(=O)(=O)O)[C@@H]3SC2)cc1	16800	
O=C(O)c1cc(O)c(=O)c2c(O)c(O)ccc2c1 [7-DESHYDROXYPYROGALLIN-4-CARBOXYLIC ACID]	2100	
